# Assays:
# [1] = Auto-aggregation; format: physicochemical; settings: 37° C., at 20 h
# Description: The absorbance (OD600 nm) was adjusted to 0.5. Then the bacterial suspension was cultured at 37° C., and its absorbance at 600 nm at 4, 8, 12, 16, 20, and 24 h was measured. The auto-aggregation percentage was calculated using the following formula: […]
# [2] = system: AOM/DSS-induced colorectal carcinoma mice; test: AOM/DSS-induced colorectal carcinoma mice; format: in vivo, C57BL/6 mice; settings: for colorectum weight/length (ratio): model group 4.34±0.35, normal 2.81±0.34
# Description: 6-week-old SPF male C57BL/6 mice, purchased from the Chongqing Lepitt Biotechnology Co., Ltd. The mice were raised in a standardized laboratory with room temperature of 25° C.±2° C., relative humidity of 50%±5%, and 12 h of light/12 h of darkness. […] In experiments, mice were given free feeding and water. On the first day of experimental molding, the mice in the model group, the aspirin group, and the AKKP group were injected intraperitoneally with AOM at a dosage of 10 mg/kg, and were fed with 2.5% DSS aqueous solution at weeks 2, 5, and 8. The mice in the normal group and model group were intragastrically administrated with sterile saline; the mice in the aspirin group were intragastrically administrated with an aspirin solution at 67 mg/kg, and the mice in the AKKPL group and the AKKPH group were intragastrically administrated at dosages of 1×10^8 CFU/kg and 1×10^9 CFU/kg, respectively, for 10 consecutive weeks. In the experiments, diet, activity, vigor and hair conditions, and fecal properties of the mice in each group were observed. Each mouse was weighed per week and the body weights were recorded. After the experiments, blood was collected from eyeballs and the mice were sacrificed by removing their vertebrae. The mice were dissected to take out large intestine tissue, spleen tissue, liver tissue, and the kidney tissue for later testing.
# After the mice were dissected, the large intestine tissue, the spleen tissue, the liver tissue, and the kidney tissue were taken out and weighed. An organ Index was calculated using a formula, while the colorectum length of the mouse was measured and the colorectal tumorigenesis number of the mouse was recorded. Organ index=organ weight (mg)/mouse body weight (g).
# After being fixed in a tissue fixative for 24 h, the rectum of the mouse was transferred into 95% ethanol for dehydration, and then the dehydrated rectum was placed in xylene to replace alcohol in the tissue to make the rectum tissue transparent. Then, the treated rectum was embedded with paraffin. The embedded rectum was sectioned by a microtome, and then a tissue section was stained with H&E and fixed, obtaining a pathologic tissue section, with a thickness of 2 to 3 μm, of the rectum of the mouse, and the pathologic tissue section was observed under the upright microscope.
# Whole blood was collected from the eyeballs, and centrifuged at 4000 r/min and 4° C. for 10 min to separate supernatant serum. According to the instruction of the ELISA kit, the levels of IL-1β, IL-6, IFN-γ, iNOS and NF-κB in the serum of the mouse were determined.
# About 50 mg colon tissue was taken and cleaned with saline, and the cleaned colon tissue was placed in a homogenization tube containing 6 zirconia beads, and 500 μL TRIzol™ reagent was added to extract RNA in the tissue. The purity and concentration of RNA were determined using the micro-spectrophotometer. […] Then, after cDNA was generated by reverse transcription, a reaction system containing 1 μL cDNA was prepared. Other reagents include 10 μL qPCR SYBR Green Master Mix, […] sterile distilled water, 1 μL forward primer and 1 μL reverse primer. qRT-PCR amplification reaction conditions: 95° C., 10 s, 60° C., 30 s, 40 cycles; 95° C., 15 s, 60° C., 60 s, 95° C., 15 s. Taking Eef2 as an internal reference gene, the mRNA relative expression of each target gene was calculated according to formula 2^−ΔΔCt.
# [3] = system: mice; test: Subchronic toxicity experiment, 90 d; format: in vivo
# Description: Animals were randomly divided into four groups: group 1 (half male and half female) (saline, 0 CFU/kg. bw/d), group 2 (half male and half female) (9.2×10^8 CFU/kg. bw/d), group 3 (half female and half male) ([…]), and group 4 (half male and half female) (92×10^8 CFU/kg. bw/d). A new bacterial suspension was prepared per day. The bacterial suspension was intragastrically administrated orally for 90 consecutive days at a dosage volume of 5 mL/kg. bw. Clinical signs were recorded per day, and detailed clinical observation was conducted once a week. The body weight, the food consumption, and the water intake were recorded once a week. At the end of the experimental period, blood samples were collected for hematological and serum biochemical analysis (refer to Embodiment 4). An autopsy was conducted on all animals, and the weight of main organs was recorded. A histopathological examination was performed on the major organs and tissue of all the animals in each group (refer to Embodiment 4). […]
# Determination of blood glucose: In a certain time interval after administration, at 0, 15, 30, 60, 90 and 120 min, the tail venous blood of the mouse was taken, and the blood glucose level of the mouse was measured using a blood glucose meter measurement method. […]
# [4] = qRT-PCR, aspirin 67 mg/kg or AKKPH 1×10^9 CFU/kg, vs model group, P<0.05
# [5] = qRT-PCR, vs model group, P<0.05
substance,measurement,setting,value
Akkermansia muciniphila [AKK PROBIO],auto-aggregation,[1],around 52%
same,colorectum weight/length (ratio),[2]; AKKPH 1×10^9 CFU/kg intragastric 10 weeks,2.97±0.18
same,colorectum weight/length (ratio),[2]; AKKPL 1×10^8 CFU/kg intragastric 10 weeks,3.18±0.31
same,body weight loss,"[2]; AOM/DSS mice, intragastric 10 weeks, aspirin 67 mg/kg, AKKP 1×10^8 and 1×10^9 CFU/kg",alleviate the body weight loss in the mice to a certain extent
same,content of IL-6 in serum,"[2]; ELISA, vs model group",reduced
same,content of IFN-γ in serum,"[2]; ELISA, vs model group, P<0.05",reduced
same,content of IL-1β in serum,"[2]; ELISA, vs model group, P<0.05",lower than that in the model group
same,content of NF-κB in serum,"[2]; ELISA, vs model group, P<0.05",reduced
same,content of iNOS in serum,"[2]; ELISA, vs model group, P<0.05",reduced
same,pathological morphology of rectum tissue (H&E),"[2]; aspirin, AKKPL and AKKPH groups",no obvious erosion found in the rectal mucosa
same,kidney index / renal tissue,"[2]; between the five groups, P>0.05",no significant difference
same,mRNA relative expression of IκBβ in colon tissue,[2]; [4],significantly reduced
same,mRNA relative expression of p50 in colon tissue,[2]; [4],significantly reduced
same,mRNA relative expression of Bid in colon tissue,[2]; [5],significantly increased
same,mRNA relative expression of Bim in colon tissue,[2]; [5],significantly increased
same,mRNA relative expression of caspase-9 in colon tissue,[2]; [5],significantly increased
same,mRNA relative expression of p52 in colon tissue,[2]; [5],significantly reduced
same,mRNA relative expression of p65 in colon tissue,[2]; [5],significantly reduced
same,colorectal tumorigenesis number,"[2]; vs model group, P<0.05",significantly smaller
same,liver weight (liver index),"[2]; vs model group, P<0.05",reduced
same,spleen weight (spleen index),"[2]; vs model group, P<0.05",reduced
same,colorectum length,"[2]; vs model group, P<0.05, aspirin 67 mg/kg, AKKP 1×10^8 and 1×10^9 CFU/kg, 10 weeks",relatively long
same,pathological injury to the livers and kidneys,[3]; 90 d,no significant pathological injury
same,weight of major organs,"[3]; 90 d, heart, liver, spleen, kidneys, thymus, brain, testes, lungs, pancreas, stomach, intestine, vs control group",substantially no significant difference
same,changes of blood glucose per week,"[3]; 90 d, medium-dosage group (27.6×10^8) vs control saline group",significant difference
same,changes of blood glucose per week,"[3]; 90 d, the other groups (low, high dosage) vs control group",no significant difference
same,level of the bile acid both in serum and liver,"[3]; 90 d, the other groups vs control group",no significant difference
same,activity of glutamic oxalacetic transaminase in both serum and liver,"[3]; 90 d, vs control group",no significant difference
same,activity of glutamic pyruvate transaminase in both serum and liver,"[3]; 90 d, vs control group",no significant difference
same,blood glucose regulation ability (glucose tolerance and insulin tolerance),"[3]; 90 d, vs control group",no significant difference
same,concentration of blood urea nitrogen in serum,"[3]; 90 d, vs control group",no significant difference
same,content of creatinine in serum,"[3]; 90 d, vs control group",no significant difference
same,content of total protein in both serum and liver,"[3]; 90 d, vs control group",no significant difference
same,level of glucose in both serum and liver,"[3]; 90 d, vs control group",no significant difference
same,level of the cholesterol in both liver and serum,"[3]; 90 d, vs control group",no significant difference
same,level of the triglyceride in both liver and serum,"[3]; 90 d, vs control group",no significant difference
same,changes of body weight per week,"[3]; 90 d, vs control saline group",no significant difference
same,changes of food intake per week,"[3]; 90 d, vs control saline group",no significant difference
same,various blood indicators,"[3]; 90 d, vs control saline group",no significant difference
same,death,"[3]; intragastric 90 consecutive days, high, medium, low dosage (92×10^8, 27.6×10^8, 9.2×10^8 CFU/kg. bw/d)",no death occurs

# Source: patent US12606795B2 (Thankcome Biological Science and Technology (SuZhou) Co., …, priority 2023, dated 2026)
